Measurements published in ChEMBL document CHEMBL1649211, “Diversity of beta-lactamases produced by ceftazidime-resistant Pseudomonas aeruginosa isolates causing bloodstream infections in Brazil” (2009).

Legend:
Format in all cases: functional
Pseudomonas aeruginosa [1] = test: Antimicrobial activity against beta-lactamase-producing Pseudomonas aeruginosa clinical isolate assessed as susceptible isolates by agar dilution method
Pseudomonas aeruginosa [2] = test: Antimicrobial activity against ESBL- and MBL-producing Pseudomonas aeruginosa isolated from patients with bloodstream infection assessed as resistant isolates by agar dilution method
Pseudomonas aeruginosa [3] = test: Antimicrobial activity against Pseudomonas aeruginosa clinical isolate overexpressing AmpC gene assessed as resistant isolates by agar dilution method
Pseudomonas aeruginosa [4] = test: Antimicrobial activity against ESBL- and MBL-producing and ceftazidime-resistant Pseudomonas aeruginosa isolated from patients with bloodstream infection assessed as resistant isolates by agar dilution method
Pseudomonas aeruginosa [5] = test: Antimicrobial activity against beta-lactamase-producing Pseudomonas aeruginosa clinical isolate assessed as susceptible isolate by agar dilution method in presence of beta-lactamase inhibitor Tazobactam
Pseudomonas aeruginosa [6] = test: Antimicrobial activity against beta-lactamase-producing Pseudomonas aeruginosa clinical isolate by agar dilution method

Molecule | Activity (Pseudomonas aeruginosa [1]) | Activity (Pseudomonas aeruginosa [4]) | other results
NCC[C@H](O)C(=O)N[C@@H]1C[C@H](N)[C@@H](O[C@H]2O[C@H](CN)[C@@H](O)[C@H](O)[C@H]2O)[C@H](O)[C@H]1O[C@H]1O[C@H](CO)[C@@H](O)[C@H](N)[C@H]1O [AMIKACIN] | 18.6% | – | –
CC(C)(O/N=C(\C(=O)N[C@@H]1C(=O)N2C(C(=O)[O-])=C(C[n+]3ccccc3)CS[C@H]12)c1csc(N)n1)C(=O)O [CEFTAZIDIME] | – | – | Activity (Pseudomonas aeruginosa [2]): 28%; Activity (Pseudomonas aeruginosa [3]): 9.3%
C[C@@H](O)[C@H]1C(=O)N2C(C(=O)O)=C(SCCNC=N)C[C@H]12 [IMIPENEM ANHYDROUS] | 18.6% | 82% | –
C[C@@H](O)[C@H]1C(=O)N2C(C(=O)O)=C(S[C@@H]3CN[C@H](C(=O)N(C)C)C3)[C@H](C)[C@H]12 [MEROPENEM] | – | 95% | –
CCN1CCN(C(=O)N[C@@H](C(=O)N[C@@H]2C(=O)N3[C@@H]2SC(C)(C)[C@@H]3C(=O)O)c2ccccc2)C(=O)C1=O [PIPERACILLIN] | 34.8% | – | Activity (Pseudomonas aeruginosa [5]): 39.5%; MIC (Pseudomonas aeruginosa [6]): ≤ 16 µg/mL
COLISTIN | 100% | – | –
